Laboratory results reported in US4239778A, “Azaprostanoic acid analogs and their use as inhibitors of platelet aggregation” (priority 1978, dated 1980).
Entries after “also recorded” stand apart in the source; their conditions may differ. Like-named read-outs stand apart in the source and are kept apart here.

Legend:
[1] = molecular target: T1, prostaglandin synthetase (cyclooxygenase) (Bos taurus, UniProt O62664); assay: Inhibition of prostaglandin synthetase (cyclooxygenase): arachidonic acid-dependent formation of adrenochrome from L-epinephrine; format: biochemical, bovine (seminal vesicles); conditions: 5×10^-4 M
T1 construct: adrenochrome assay with arachidonic acid
T1 sequence (O62664 25-600): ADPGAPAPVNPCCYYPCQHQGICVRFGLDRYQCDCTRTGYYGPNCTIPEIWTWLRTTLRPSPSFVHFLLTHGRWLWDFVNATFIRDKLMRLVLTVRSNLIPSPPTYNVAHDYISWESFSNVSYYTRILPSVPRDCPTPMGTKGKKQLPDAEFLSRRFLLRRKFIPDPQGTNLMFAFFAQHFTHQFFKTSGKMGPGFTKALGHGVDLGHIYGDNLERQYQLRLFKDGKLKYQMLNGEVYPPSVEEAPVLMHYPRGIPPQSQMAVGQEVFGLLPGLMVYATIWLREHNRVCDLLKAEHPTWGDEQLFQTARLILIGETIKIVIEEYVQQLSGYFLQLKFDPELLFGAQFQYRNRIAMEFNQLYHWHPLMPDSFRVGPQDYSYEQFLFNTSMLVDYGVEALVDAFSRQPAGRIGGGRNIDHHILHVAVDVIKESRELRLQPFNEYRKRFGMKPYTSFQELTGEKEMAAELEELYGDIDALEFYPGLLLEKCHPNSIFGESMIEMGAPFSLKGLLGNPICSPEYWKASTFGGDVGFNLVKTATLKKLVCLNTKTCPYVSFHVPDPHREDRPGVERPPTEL
Method: A representative sample of the 13-azaprostanoic acid derivatives, and cis-15-azaprostanoic acid were tested for their effect as inhibitors of prostaglandin synthetase (cyclooxygenase). The basis of the assay is the measurement of the arachidonic acid-dependent formation of adrenochrome from L-peinephrine during prostaglandin biosynthesis [See, generally, the procedure of Takaguchi, et al., Prostaglandins, 2, 169 (1972)].
In order to check the possibility that the compounds might be inhibitors of the cyclooxygenase enzyme, they were tested in a standard prostaglandin biosynthesis assay according to the method of Takagushi, et al., Prostaglandins, 2, 169 (1972). The basis of the assay is the measurement of the arachidonic acid-dependent formation of adrenochrome from L-epinephrine during prostaglandin biosynthesis. Although the assay is an indirect measurement of cyclooxygenase activity, it offers the advantage that total enzyme activity is measured and is not limited to the measurement of any one product of the biotransformation.

[2] = system: platelets (human platelet rich plasma); assay: ADP-induced primary (reversible) platelet aggregation; format: cell-based; conditions: 100 μM, 2 min. pretreatment; 10 μM ADP
Excerpt: No effect was observed on the ADP-induced primary aggregation of platelets.

[3] = system: aspirin-treated platelets (human PRP); assay: Aggregation of aspirin-treated platelets by transferred externally generated endoperoxides/thromboxane A2; format: cell-based
Method: The effect of trans-13-azaprostanoic acid on platelet aggregation induced by externally generated endoperoxides and thromboxane A2 was investigated. The endoperoxides and thromboxane A2 were generated by the addition of 500 μM arachidonic acid to 0.75 ml of human platelet-rich plasma (PRP). […] The endoperoxides and thromboxane transferred caused the aspirin-treated platelets to aggregate.
It has been shown that the formation of thromboxanes is closely associated with the initiation of platelet aggregation and occurs rapidly (within 30 sec.) when induced by arachidonic acid. Therefore, the aggregating effect of thromboxane A2 can be studied by first generating the agent in one sample of PRP, and then transferring a portion of this to a second sample of PRP. […] Thus, any aggregation induced by transferred material is due to thromboxane A2 and/or prostaglandin endoperoxides. […] This experiment was repeated several times with identical results.

platelets (human PRP) = assay: Arachidonic acid-induced platelet aggregation (method of Born); format: cell-based; conditions: for inhibition at 10 µM: Homo sapiens, Platelet, human PRP
Method: The effect of various azaprostanoic acids of the invention on arachidonic acid-induced platelet aggregation was determined according to the method of Born, Nature, 194, 927 (1962). At a concentration of 10 μM, trans-13-azaprostanoic acid, and cis-15-azaprostanoic acid, inhibit aggregation 100% and 91%, respectively in response to 300 μM arachidonare. Both the cis and trans-13-aza-20-homoprostanoic acid analogs show significant inhibitory activity, 50% and 71%, respectively.
The relative inhibitory activities of the azaprostanoic acids were determined by varying the concentration of arachidonic acid while keeping the inhibitor concentration constant.

[4] = system: platelet conversion of AA to thromboxane B2 (TXB2); assay: TXB2 formation in platelet rich plasma aggregated with arachidonic acid (radioimmunoassay); format: cell-based
Method: (§1) Platelet rich plasma was aggregated with 500 μM arachidonic acid and three minutes following arachidonate addition, aliquots of the plasma were drawn for TXB2 determinations.

platelet rich plasma = assay: Platelet aggregation with 500 μM arachidonic acid (Table IV); format: cell-based
Method: as §1

thromboxane synthetase [5] = assay: TXB2 formation in response to added PGH2 in indomethacin-treated resuspended platelets (thromboxane synthetase); format: cell-based
Method: This possibility was examined by measuring the effect of 13-APA on TXB2 formation in response to added PGH2 (0.13 μg/ml). Platelets were isolated from EDTA-treated ([…]) PRP by centrifugation at 800 xg for 15 minutes. The platelet pellet was resuspended by gentle swirling in calcium-free Tyrode buffer (pH 7.4). […] Moreover, if it is assumed that TXA2 is the final mediator involved in prostaglandin activation, 13-APA must act to block the interaction of TXA2 with the platelet receptor.

platelets = assay: PGH2-induced platelet aggregation (Table V); format: cell-based
Swiss Webster mice = format: in vivo, mouse; conditions: 30 mg/kg i.p.
Method: (§2) Swiss Webster mice (25 gm) maintained on a Purina diet were injected intraperitoneally with either 0.1 ml corn oil or 0.1 ml corn oil containing 13-azaprostanoic acid (13-APA) of Example 5. The dose of 13-APA employed was 30 mg/kg. One hour subsequent to injection, 0.05 ml of a sodium arachidonate solution was administered by rapid I.V. through the tail vein to both control and drug-treated mice. The arachidonate was dissolved in 90% saline and 10% ethanol (95%).

platelet receptor = assay: Platelet aggregation induced by direct agonist 9-epoxy CEE; format: cell-based; conditions: 3 μM 9-epoxy CEE
Excerpt: Such inhibitory activity has not been previously reported for any compound which selectively blocks AA-induced aggregation.

mice = assay: Observation of mice after 30 mg/kg 13-APA; format: in vivo, mouse; conditions: months after dose
Method: as §2

[6] = in vivo; cited from earlier work
cyclooxygenase = conditions: cited from earlier work
[7] = in vivo; cited from earlier work; remark: listed apart in the source
thromboxane synthetase [8] = conditions: cited from earlier work
platelet cAMP levels = conditions: cited from earlier work
platelet aggregation = conditions: cited from earlier work
[9] = 1 h before I.V. arachidonate (100 mg/kg), number of mice of 4
[10] = AA 500 μM + imidazole 100 μg/ml
[11] = AA 500 μM + imidazole 200 μg/ml

CCCCCCCN[C@@H]1CCC[C@H]1CCCCCCC(=O)O (relative stereo) [Example 4 trans, trans-13-azaprostanoic acid]
inhibition of cyclooxygenase (in words) [1]: did not significantly inhibit | effect on ADP-induced primary aggregation [2]: did not alter reversible, primary phase aggregation | aggregation induced by transferred thromboxane A2/endoperoxide mixture ([3]; 100 μM pre-incubation, aspirin-treated platelets): totally inhibited; also recorded: no aggregation was observed | inhibition at 10 µM (platelets (human PRP); 10^-5 M (10 μM) inhibitor, 300 μM arachidonate): 100% | inhibition at 10 µM (platelets (human PRP); 10^-5 M inhibitor, 400 μM arachidonate): 66% | inhibition at 10 µM (platelets (human PRP); 10^-5 M inhibitor, 500 μM arachidonate): 19% | inhibition of platelet aggregation (in words) (platelets (human PRP); summary of screening): potent inhibitors of platelet aggregation

CCCCC/C=C\C/C=C\C/C=C\C/C=C\CCCC(=O)O [Arachidonic Acid (AA), Arachidonic Acid]
TXB2 ([4]; AA 500 μM alone): 1179 ± 37 ng/mL | aggregation of aspirin-treated platelets by arachidonic acid ([3]; 500 μM arachidonic acid, aspirin 0.5 mg/ml): did not cause aggregation | % Aggregation (platelet rich plasma; AA 500 μM alone): 80%

CCCCCCCN[C@H]1CCC[C@@H]1CCCCCCC(=O)O [Example 13-APA, 13-azaprostanoic acid]
platelet production of TXB2 (in words) (thromboxane synthetase [5]; 13-APA 100 μM): no effect on platelet production of TXB2 | TXB2 (thromboxane synthetase [5]; PGH2 […] + 13-APA 10 μM): 50 ± 2 ng/mL | TXB2 (thromboxane synthetase [5]; PGH2 […] + 13-APA 50 μM): 44 ± 2 ng/mL | TXB2 (thromboxane synthetase [5]; PGH2 […] + 13-APA 100 μM): 40 ± 2 ng/mL | TXB2 ([4]; AA 500 μM + 13-APA 10 μM): 1164 ± 25 ng/mL | TXB2 ([4]; AA 500 μM + 13-APA 50 μM): 750 ± 19 ng/mL | inhibition at 50 µM ([4]; Platelet, 0.05 h, 13-APA 50 μM, read-out: decrease of TXB2 formation): 36% | inhibition of PGH2-induced aggregation (in words) (platelets; 13-APA 10 μM): completely effective in inhibiting PGH2 -induced aggregation | % Aggregation (platelets; PGH2 […] + 13-APA 10 μM): 0% | % Aggregation (platelets; PGH2 […] + 13-APA 50 μM): 0% | % Aggregation (platelets; PGH2 […] + 13-APA 100 μM): 0% | Death (Swiss Webster mice; [9]): 0 | Severe Respiratory Distress (Swiss Webster mice; [9]): 0 | symptoms of thromboembolism (in words) (Swiss Webster mice; arachidonate 100 mg/kg I.V.): none of the symptoms of thromboembolism | inhibition of aggregation induced by 9-epoxy CEE (in words) (platelet receptor; 13-APA 100 μM): completely inhibited | inhibition at 10 µM (platelet receptor; Platelet, 13-APA 10 μM): ~60% | ill effects / toxicity (in words) (mice): no ill effects are evident | inhibition of aggregation (in words) (platelet rich plasma; 13-APA 50 μM): completely inhibits aggregation | % Aggregation (platelet rich plasma; AA 500 μM + 13-APA 10 μM): 80% | % Aggregation (platelet rich plasma; AA 500 μM + 13-APA 50 μM): 0%

CCCCC[C@H](O)/C=C/[C@H]1C(=O)C[C@H](O)[C@@H]1C/C=C\CCCC(=O)O [PGD2]
biological half-life (in words) [6]: very short biological half-lives

CCCCC[C@H](O)/C=C/[C@H]1[C@H](O)CC(=O)[C@@H]1CCCCCCC(=O)O [PGE1]
biological half-life (in words) [6]: very short biological half-lives

CC(=O)Oc1ccccc1C(=O)O [aspirin]
inhibition of prostaglandin biosynthesis / cyclooxygenase (in words) (cyclooxygenase): inhibit prostaglandin biosynthesis by blocking the conversion of substrate fatty acids to endoperoxides | bleeding times (in words) [7]: prolong bleeding times

c1c[nH]cn1 [imidazole]
TXB2 (thromboxane synthetase [5]; PGH2 […] + imidazole 20 μg/ml): 26 ± 1 ng/mL | TXB2 (thromboxane synthetase [5]; PGH2 […] + imidazole 100 μg/ml): 6 ± 1 ng/mL | TXB2 (thromboxane synthetase [5]; PGH2 […] + imidazole 200 μg/ml): 3 ± 1 ng/mL | thromboxane synthetase inhibition (in words) (thromboxane synthetase [5]; imidazole 20-200 μg/ml): blocks thromboxane synthetase in a dose dependent manner | TXB2 ([4]; AA 500 μM + imidazole 20 μg/ml): 669 ± 33 ng/mL | TXB2 [4, 10]: 264 ± 7 ng/mL | TXB2 [4, 11]: 138 ± 8 ng/mL | TXB2 formation (in words) ([4]; imidazole 200 μg/ml): substantial depression of TXB2 formation | TXB2 levels versus control (in words) ([4]; imidazole decreased from 200 μg/ml to 20 μg/ml): significantly lower than control | concentration necessary to achieve inhibition of thromboxane synthetase (thromboxane synthetase [8]): 2 mM | inhibition of thromboxane synthetase (in words) (thromboxane synthetase [8]): selectively inhibit thromboxane synthetase in a concentration dependent fashion | inhibition of thromboxane synthetase (in words) (thromboxane synthetase [8]; listed as Imidazole): selectively inhibits thromboxane synthetase | % Aggregation (platelets; PGH2 […] + imidazole 20 μg/ml): 30% | % Aggregation (platelets; PGH2 […] + imidazole 100 μg/ml): 50% | % Aggregation (platelets; PGH2 […] + imidazole 200 μg/ml): 60% | changes in platelet cAMP levels (in words) (platelet cAMP levels): without inducing changes in platelet cAMP levels | % Aggregation (platelet rich plasma; AA 500 μM + imidazole 20 μg/ml): 21% | % Aggregation (platelet rich plasma; [10]): 11% | % Aggregation (platelet rich plasma; [11]): 5% | inhibition at 20 µg/mL (platelet rich plasma; Platelet, read-out: inhibition of aggregation): ~75% | effect on platelet aggregation (in words) (platelet aggregation): erratic; also recorded: potentiate aggregation in washed platelets
